Assay results reported in patent US8614251B2, “Crystalline form VI of agomelatine, preparation method and application thereof” (Les Laboratories Servier, priority 2009, dated 2013).
≈ marks a conversion by molar mass, not a printed value.

Tests used:
[1] = Solubility measurement in water by HPLC, external standard method; assay type: physicochemical
Description: 3. Solubility Measurement in Water
The measurement was carried out by HPLC using an external standard method.

[2] = Stability of crystalline forms on storage at 40° C. for 20 days, purity by HPLC; assay type: physicochemical; settings: for Purity after storage in the thermostatically controlled containers for 20 days / Purity before storage: HPLC
Description: Crystalline forms II, III, IV and VI are respectively placed in a thermostatically controlled container at 40° C. for 20 days. The stability of the said crystalline forms is assessed by high performance liquid chromatography.
Chromatographic conditions: octadecylsilane bonded silica as filler; a mixed solution of 10 mM/L phosphate buffer (adjusted to pH 7.0 by sodium hydroxide) and acetonitrile in 2:7 by volume as mobile phase; column temperature 40° C.; detection wavelength 220 nm. The purity is determined using an internal standard method.
The crystalline forms II, III, IV and VI were formulated with the mobile phase as 1 mg/mL solution. 10 μL of each of the solution was removed and injected into the liquid chromatograph. The chromatograms were recorded.
The assay was carried out using an external standard method as described under Purity Measurement of the Sample.

Structure (SMILES)	Solubility compared with the existing crystalline forms [1]	solubility ([1]; HPLC)	Stability compared with the existing crystalline forms ([2]; 40° C., 20 days)	Purity after storage in the thermostatically controlled containers for 20 days ([2]; 40° C., 20 days)	Purity before storage [2]
COc1ccc2cccc(CCNC(C)=O)c2c1 [crystalline form VI, N-[2-(7-methoxy-1-naphthyl)ethyl]acetamide]	superior	1240 µg/mL (≈ 5.1 mM)	superior	99.55%	99.60%
COc1ccc2cccc(CCNC(C)=O)c2c1 [crystalline form II, N-[2-(7-methoxy-1-naphthyl)ethyl]acetamide]				99.24%	99.79%
COc1ccc2cccc(CCNC(C)=O)c2c1 [crystalline form III, N-[2-(7-methoxy-1-naphthyl)ethyl]acetamide]				99.10%	99.77%
COc1ccc2cccc(CCNC(C)=O)c2c1 [crystalline form IV, N-[2-(7-methoxy-1-naphthyl)ethyl]acetamide]				99.54%	99.82%
